Inconclusive results and toxic doses are left out. The calls were made as follows: active = survival T/C of 150% or more; inactive = T/C below 125% in these data.
Test system: CD2F1 mice, L1210 leukemia ip, survival T/C
Experiment: NCI In Vivo Anticancer Drug Screen. Data for tumor model L1210 Leukemia (intraperitoneal) in CD2F1 (CDF1) mice
Conditions: higher = longer survival
How it was run: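 Mice carrying a transplanted tumor received test compound or vehicle alone. The value is the measurement in the treated group divided by that in the vehicle-treated control group.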

[1] = endpoint: mean survival time, dose: 2.0 mg/kg/injection, schedule: Q01DX009 (ip), vehicle: water
[2] = endpoint: mean survival time, dose: 8.0 mg/kg/injection, schedule: Q01DX009 (ip), vehicle: water
[3] = endpoint: mean survival time, dose: 32.0 mg/kg/injection, schedule: Q01DX009 (ip), vehicle: water
[4] = endpoint: mean survival time, dose: 50.0 mg/kg/injection, schedule: Q01DX009 (ip), vehicle: saline
[5] = endpoint: mean survival time, dose: 100.0 mg/kg/injection, schedule: Q01DX009 (ip), vehicle: saline
[6] = endpoint: mean survival time, dose: 200.0 mg/kg/injection, schedule: Q01DX009 (ip), vehicle: saline
[7] = endpoint: mean survival time, dose: 100.0 mg/kg/injection, schedule: Q01DX009 (ip), vehicle: saline with Tween-80
[8] = endpoint: mean survival time, dose: 200.0 mg/kg/injection, schedule: Q01DX009 (ip), vehicle: saline with Tween-80
[9] = endpoint: mean survival time, dose: 400.0 mg/kg/injection, schedule: Q01DX009 (ip), vehicle: saline with Tween-80
[10] = endpoint: mean survival time, dose: 100.0 mg/kg/injection, schedule: Q04DX002 (ip), vehicle: saline with Tween-80
[11] = endpoint: mean survival time, dose: 200.0 mg/kg/injection, schedule: Q04DX002 (ip), vehicle: saline with Tween-80
[12] = endpoint: mean survival time, dose: 400.0 mg/kg/injection, schedule: Q04DX002 (ip), vehicle: saline with Tween-80

Measured: T/C

O=c1ccn(C2OC(CO)C(O)C2O)c(C2SCCCS2)n1 (stereo unspecified)
inactive: endpoint: mean survival time, dose: 9.38 mg/kg/injection, schedule: Q01DX005 (ip), vehicle: water 90 % of control | endpoint: mean survival time, dose: 18.75 mg/kg/injection, schedule: Q01DX005 (ip), vehicle: water 93 % of control | endpoint: mean survival time, dose: 37.5 mg/kg/injection, schedule: Q01DX005 (ip), vehicle: water 93 % of control | endpoint: mean survival time, dose: 75.0 mg/kg/injection, schedule: Q01DX005 (ip), vehicle: water 96 % of control | endpoint: mean survival time, dose: 150.0 mg/kg/injection, schedule: Q01DX005 (ip), vehicle: water 96 % of control

C/C=C/CC(C)C(O)C1C(=O)NC(CC)C(=O)N(C)CC(=O)N(C)C(CC(C)C)C(=O)NC(C(C)C)C(=O)N(C)C(CC(C)C)C(=O)NC(C)C(=O)NC(C)C(=O)N(C)C(CC(C)C)C(=O)N(C)C(CC(C)C)C(=O)N(C)C(C(C)C)C(=O)N1C (stereo unspecified)
inactive: endpoint: median survival time, dose: 25.0 mg/kg/injection, schedule: Q01DX009 (ip), vehicle: Klucel (hydroxypropylcellulose) (HPC) 102 % of control | endpoint: median survival time, dose: 50.0 mg/kg/injection, schedule: Q01DX009 (ip), vehicle: Klucel (hydroxypropylcellulose) (HPC) 107 % of control | endpoint: median survival time, dose: 100.0 mg/kg/injection, schedule: Q01DX009 (ip), vehicle: Klucel (hydroxypropylcellulose) (HPC) 106 % of control

NC(=O)c1cn(C2OC(CO)CC2O)c2ncnc(N)c12 (stereo unspecified)
inactive: endpoint: mean survival time, dose: 0.13 mg/kg/injection, schedule: Q01DX009 (ip), vehicle: water 90 % of control | endpoint: mean survival time, dose: 0.25 mg/kg/injection, schedule: Q01DX009 (ip), vehicle: water 98 % of control | endpoint: mean survival time, dose: 0.5 mg/kg/injection, schedule: Q01DX009 (ip), vehicle: water 96 % of control | endpoint: mean survival time, dose: 1.0 mg/kg/injection, schedule: Q01DX009 (ip), vehicle: water 102 % of control | [1] 113 % of control | [2] 110 % of control | [3] 122 % of control

CC(C)(O)C(=O)O
inactive: [4] 96 % of control | [5] 93 % of control | [6] 86 % of control

CCC1(O)CC2CN(CCc3c([nH]c4ccccc34)C(C(=O)OC)(c3cc4c(cc3OC)N(C)C3C(O)(C(=O)NCCO)C(O)C5(CC)C=CCN6CCC43C65)C2)C1 (stereo unspecified)
inactive: endpoint: mean survival time, dose: 0.36 mg/kg/injection, schedule: Q01DX009 (ip), vehicle: water 110 % of control | endpoint: mean survival time, dose: 0.52 mg/kg/injection, schedule: Q04DX003 (ip), vehicle: water 108 % of control | endpoint: mean survival time, dose: 0.86 mg/kg/injection, schedule: Q04DX003 (ip), vehicle: water 119 % of control | endpoint: mean survival time, dose: 1.44 mg/kg/injection, schedule: Q04DX003 (ip), vehicle: water 118 % of control | endpoint: mean survival time, dose: 2.4 mg/kg/injection, schedule: Q04DX003 (ip), vehicle: water 113 % of control

CCCCCCCCCCCCCCCCCCCCCC(O)(CC)CC
inactive: [7] 97 % of control | endpoint: mean survival time, dose: 100.0 mg/kg/injection, schedule: Q04DX003 (ip), vehicle: saline with Tween-80 94 % of control | [8] 94 % of control | endpoint: mean survival time, dose: 200.0 mg/kg/injection, schedule: Q04DX003 (ip), vehicle: saline with Tween-80 94 % of control | [9] 100 % of control | endpoint: mean survival time, dose: 400.0 mg/kg/injection, schedule: Q04DX003 (ip), vehicle: saline with Tween-80 95 % of control

CN(CCO)c1c(Cl)c(=O)oc2ccc(Cl)cc12
inactive: [7] 97 % of control | [8] 101 % of control | [9] 106 % of control

N.N.O=C([O-])/C=C\C(=O)[O-].[Pt]
inactive: endpoint: mean survival time, dose: 2.5 mg/kg/injection, schedule: Q04DX003 (ip), vehicle: distilled water + Tween-80 112 % of control | endpoint: mean survival time, dose: 5.0 mg/kg/injection, schedule: Q04DX003 (ip), vehicle: distilled water + Tween-80 116 % of control | endpoint: mean survival time, dose: 10.0 mg/kg/injection, schedule: Q04DX003 (ip), vehicle: distilled water + Tween-80 113 % of control | endpoint: mean survival time, dose: 10.0 mg/kg/injection, schedule: Q04DX003 (ip), vehicle: water 105 % of control | endpoint: mean survival time, dose: 20.0 mg/kg/injection, schedule: Q04DX003 (ip), vehicle: distilled water + Tween-80 118 % of control | endpoint: mean survival time, dose: 20.0 mg/kg/injection, schedule: Q04DX003 (ip), vehicle: water 113 % of control | endpoint: mean survival time, dose: 40.0 mg/kg/injection, schedule: Q04DX003 (ip), vehicle: water 118 % of control

CCCOC(=O)COc1ccc(F)cc1
inactive: [10] 97 % of control | [11] 101 % of control | [12] 97 % of control

c1ccc(Oc2ccc(Nc3c4ccccc4nc4ccccc34)cc2)cc1
inactive: [10] 101 % of control | [11] 101 % of control | [12] 104 % of control

O=C(CCOP(=O)(N1CC1)N1CC1)OCc1ccccc1
inactive: [1] 101 % of control | endpoint: mean survival time, dose: 3.9 mg/kg/injection, schedule: Q01DX001 (ip), vehicle: Klucel (hydroxypropylcellulose) (HPC) 89 % of control | endpoint: mean survival time, dose: 4.0 mg/kg/injection, schedule: Q01DX009 (ip), vehicle: water 98 % of control | endpoint: mean survival time, dose: 7.8 mg/kg/injection, schedule: Q01DX001 (ip), vehicle: Klucel (hydroxypropylcellulose) (HPC) 102 % of control | [2] 104 % of control | endpoint: mean survival time, dose: 15.6 mg/kg/injection, schedule: Q01DX001 (ip), vehicle: Klucel (hydroxypropylcellulose) (HPC) 98 % of control | endpoint: mean survival time, dose: 16.0 mg/kg/injection, schedule: Q01DX009 (ip), vehicle: water 106 % of control | endpoint: mean survival time, dose: 31.2 mg/kg/injection, schedule: Q01DX001 (ip), vehicle: Klucel (hydroxypropylcellulose) (HPC) 88 % of control | [3] 118 % of control

COC(c1ccccc1)C(Br)c1ccccc1 (stereo unspecified)
inactive: [7] 97 % of control | endpoint: mean survival time, dose: 100.0 mg/kg/injection, schedule: Q04DX003 (ip), vehicle: saline sonified 103 % of control | [8] 97 % of control | endpoint: mean survival time, dose: 200.0 mg/kg/injection, schedule: Q04DX003 (ip), vehicle: saline sonified 100 % of control | [9] 109 % of control | endpoint: mean survival time, dose: 400.0 mg/kg/injection, schedule: Q04DX003 (ip), vehicle: saline sonified 105 % of control

CC(=O)Nc1ccc(NC(=O)Nc2ccc(C)c([N+](=O)[O-])c2)cc1
inactive: endpoint: mean survival time, dose: 50.0 mg/kg/injection, schedule: Q01DX009 (ip), vehicle: saline with Tween-80 98 % of control | [7] 98 % of control | [8] 98 % of control

O=C(O)c1cc(-c2ccc(-c3ccc(-c4cc(C(=O)O)c5cc(Cl)ccc5n4)cc3)cc2)nc2ccc(Cl)cc12
inactive: [7] 91 % of control | [8] 91 % of control | [9] 100 % of control

CC(C)(C)C1SCC(CO)CS1 (stereo unspecified)
inactive: [10] 97 % of control | [11] 102 % of control | [12] 91 % of control

Oc1ccc(-c2nc3ccccc3s2)cc1
inactive: endpoint: mean survival time, dose: 100.0 mg/kg/injection, schedule: Q01DX001 (ip), vehicle: saline with Tween-80 91 % of control | endpoint: mean survival time, dose: 200.0 mg/kg/injection, schedule: Q01DX001 (ip), vehicle: saline with Tween-80 95 % of control | endpoint: mean survival time, dose: 400.0 mg/kg/injection, schedule: Q01DX001 (ip), vehicle: saline with Tween-80 91 % of control

O=NCC1(Cl)CC2C=CC1C2 (stereo unspecified)
inactive: endpoint: mean survival time, dose: 6.25 mg/kg/injection, schedule: Q01DX009 (ip), vehicle: saline with Tween-80 97 % of control | endpoint: mean survival time, dose: 12.5 mg/kg/injection, schedule: Q01DX009 (ip), vehicle: saline with Tween-80 98 % of control | endpoint: mean survival time, dose: 25.0 mg/kg/injection, schedule: Q01DX009 (ip), vehicle: saline with Tween-80 98 % of control

O=C(O)c1ccccc1C(=O)Nc1nccs1
inactive: endpoint: mean survival time, dose: 50.0 mg/kg/injection, schedule: Q01DX009 (ip), vehicle: Klucel (hydroxypropylcellulose) (HPC) 97 % of control | endpoint: mean survival time, dose: 100.0 mg/kg/injection, schedule: Q01DX009 (ip), vehicle: Klucel (hydroxypropylcellulose) (HPC) 105 % of control | endpoint: mean survival time, dose: 200.0 mg/kg/injection, schedule: Q01DX009 (ip), vehicle: Klucel (hydroxypropylcellulose) (HPC) 101 % of control

c1ccc2nc(CCc3ccc4ccccc4n3)ccc2c1
inactive: [4] 96 % of control | [5] 100 % of control | [6] 102 % of control

Source: PubChem BioAssay AID256 (DTP/NCI, 2004)
